The values below come from US20190185518A9, “WARHEAD-CONTAINING PEPTIDOMIMETIC MACROCYCLES AS MODULATORS OF BFL-1” (AILERON Therapeutics, Inc., priority 2017, published 2019).

In series [1] the test system is ABT-199 resistant Burkitt lymphoma Raji cells. The series is described as follows: WST-1 anti-proliferative activity in Raji cells. The series is classed as cell-based, Human. The conditions noted are these: for pIC50: TABLE 9, Raji cell proliferation. The text has this:
WST-1 is a cell proliferation reagent that is used in colorimetric assays designed to measure the relative proliferation rates of cells in culture. The assay is based on the conversion of the tetrazolium salt WST-1 into a colored dye by mitochondrial dehydrogenase enzymes. The soluble salt is released into the media. Within a given time period, the reaction produces a color change that is directly proportional to the amount of mitochondrial dehydrogenase in a culture. The WST-1 assay measures the net metabolic activity of cells.

The target of series [2] is T1, Mcl-1 (Homo sapiens, UniProt Q07820). Conditions: cited from earlier work.
In series [3] the test system is MCL-1 driven Raji cells. Briefly: cells. The conditions noted are these: Homo sapiens, read-out: EC50 (anti-proliferative effects).
The test system of series [4] is Mcl-1, Bcl-xL, Bcl-2. Briefly: BCL-2 family selectivity profile. The series is classed as binding. Conditions: TABLE 8. An excerpt:
The binding spectrum of stapled BIM BH3 peptides were tuned for BCL-2 family selectivity. […] ABT-199 is venetoclax, and † represents values reported in the literature.

Series [5] concerns the target T2, MCL-1/BAK protein-protein interaction (Homo sapiens, UniProt Q07820).
T2 construct: host or cells: Raji
Briefly: MCL-1 displacement study (BAK FRET signal). The series is classed as cell-based. The conditions noted are these: 5 μM or 10 μM. Here is the method: BIM peptidomimetic macrocycles were tested for displacement of MCL-1 from a BAK fluorescence resonance energy transfer (FRET) peptide.
FIG. 19 compares normalized FRET signals of samples to determine the samples' effects in disrupting MCL-1/BAK protein-protein interactions.

The test system of series [6] is Mcl-1, Bcl-xL, Bcl-2. Conditions: TABLE 8; † reported in the literature; cited from earlier work.
Series [7] addresses T1, Mcl-1. Briefly: Ki determination for Mcl-1 (BCL-2 family binding spectrum). An outline of the steps:
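Competitive fluorescence polarization assay in which compounds displace a fluoresceinated peptidomimetic macrocycle tracer from Mcl-1. Affinity constants were obtained by nonlinear regression.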

Series [8] has as its target Bcl-xL (Homo sapiens, UniProt Q07817). Briefly: Ki determination for Bcl-xL (BCL-2 family binding spectrum). An outline of the steps:
(§1)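 Competitive fluorescence polarization: compounds (1 nM–1 mM) with 25 nM fluoresceinated peptidomimetic macrocycle and 50 nM protein in 140 mM NaCl, 50 mM Tris-HCl pH 7.4, 30 min at room temperature. Constants from nonlinear regression.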

Series [9] has as its system A375-P melanoma cells. The series is described as follows: Cell viability (CellTiter-Glo), A375-P. The series is classed as cell-based. Conditions: A375-P; 40 μM, 5% serum. Here is the method:
(§2) Cancer cells were cultured using a standard culture medium containing 10% fetal bovine serum (FBS) and penicillin-streptomycin (A375P: DMEM; SK-MEL-2, SK-MEL-28: EMEM). Cells were plated in 96-well plates (5×10^3 cells per well) and, after overnight incubation, treated with the indicated concentrations of Stapled Peptides in the corresponding medium supplemented with 5% FBS for the indicated durations. Cell viability and caspase-3/7 activation was measured using CellTiter-Glo and Caspase-Glo 3/7 chemiluminescence reagents (Promega), respectively. Luminescence was detected by a microplate reader (Spectramax M5, Molecular Devices).

Series [10] deals with SK-MEL-2 melanoma cells. The series is described as follows: Cell viability (CellTiter-Glo), SK-MEL-2. The series is classed as cell-based. The conditions noted are these: SK-MEL-2; 40 μM, 5% serum. Here is the method:
as §2

Series [11] concerns SK-MEL-28 melanoma cells. Briefly: Cell viability (CellTiter-Glo), SK-MEL-28. Conditions: SK-MEL-28; 40 μM, 5% serum. The series is classed as cell-based. Here is the method: as §2
For series [12], the system named is A375-P melanoma cells. Briefly: Caspase-3/7 activation (Caspase-Glo 3/7), A375-P. The series is classed as cell-based. Conditions: A375-P; control BIM SAHBA1 40 μM, 5% serum. Here is the method: as §2
For series [13], the system named is SK-MEL-2 melanoma cells. The series is described as follows: Caspase-3/7 activation (Caspase-Glo 3/7), SK-MEL-2. Conditions: SK-MEL-2; control BIM SAHBA1 40 μM, 5% serum. The series is classed as cell-based. Here is the method: as §2
Series [14] concerns SK-MEL-28 melanoma cells. The series is described as follows: Caspase-3/7 activation (Caspase-Glo 3/7), SK-MEL-28. The series is classed as cell-based. The conditions noted are these: SK-MEL-28; control BIM SAHBA1 40 μM, 5% serum. Here is the method:
as §2

The subject of series [15] is BAX-BAK^wt/wt MEF cells. The series is described as follows: On-mechanism cytotoxic activity, BAX-BAK wt/wt MEF cells. The series is classed as cell-based. Conditions: 5% serum.
Series [16] has as its system BAX-BAK^−/− double knock outs (DKO) MEF cells. The series is described as follows: On-mechanism cytotoxic activity, BAX-BAK-/- double knock out MEF cells. The conditions noted are these: 5% serum. The series is classed as cell-based.
For series [17], the system named is released LDH (damaged cells). The series is described as follows: Lactate dehydrogenase cytotoxicity colorimetric assay. The series is classed as cell-based. The conditions noted are these: 5% serum. An excerpt: When cell membranes are compromised or damaged, lactate dehydrogenase (LDH), a soluble yet stable enzyme found inside every living cell, is released into the surrounding extracellular space. The presence of LDH in the culture medium can be used as a cell death marker. The relative amounts of live and dead cells within the medium can then be quantified by measuring the amount of released LDH using a colorimetric or fluorimetric LDH cytotoxicity assay. When using an LDH colorimetric assay, the amount of LDH released in the surrounding environment is measured with an enzymatic reaction that converts iodonitrotetrazolium (INT) into red-colored formazan. When LDH is present in the cell culture, the LDH reduces NAD^+ to NADH and H^+ through the oxidation of lactate to pyruvate. Afterward, the catalyst (diaphorase) then transfers H/H^+ from NADH^+H^+ to the trazolium salt INT to form the red-colored formazan salt. The amount of color produced is measured at 490 nm by standard spectroscopy, and is proportional to the amount of damaged cells in the culture.

The subject of series [18] is MCL-1 driven Raji cells.
The target of series [19] is Bcl-2 (Homo sapiens, UniProt P10415). The series is described as follows: Ki determination for Bcl-2 (BCL-2 family binding spectrum). Conditions: read-out: Ki BCL-2. Summed up:
as §1

For series [20], the system named is Human Raji cells. The series is classed as cell-based. Conditions: Raji Cell Viability, 48 h, 5% serum. Here is the method: BIM peptidomimetic macrocycles were tested for cell killing at various concentrations. Human Raji cells were treated with increasing doses of peptidomimetic macrocycles corresponding to Aileron peptide A (FIGS. 1 and 2), Aileron peptide B (FIGS. 1-3), and Aileron peptide C (FIGS. 3 and 4). An […] was calculated for each dose of the peptidomimetic macrocycle from a non-linear fit of response vs dose (GraphPad Prism).

Structures are written as SMILES. pEC50, pIC50, pKi: −log10 of the molar value. Where two headings read alike, the source gives them in different places. Positions of bridges follow the written chain, without caps; N, C: chain ends. Non-standard residues stand in square brackets, D forms with d. Residues, ends and D or L forms follow the SMILES beside them. Phe(4-F) = N[C@@H](Cc1ccc(F)cc1)C(=O)O; R8 = C=CCCCCCC[C@@](C)(N)C(=O)O; hLeu = CC(C)CC[C@H](N)C(=O)O; S5 = C=CCCC[C@](C)(N)C(=O)O Where only a bound is given, the exact number is not on record here.

T1 sequence (Q07820 whole entry, species assumed): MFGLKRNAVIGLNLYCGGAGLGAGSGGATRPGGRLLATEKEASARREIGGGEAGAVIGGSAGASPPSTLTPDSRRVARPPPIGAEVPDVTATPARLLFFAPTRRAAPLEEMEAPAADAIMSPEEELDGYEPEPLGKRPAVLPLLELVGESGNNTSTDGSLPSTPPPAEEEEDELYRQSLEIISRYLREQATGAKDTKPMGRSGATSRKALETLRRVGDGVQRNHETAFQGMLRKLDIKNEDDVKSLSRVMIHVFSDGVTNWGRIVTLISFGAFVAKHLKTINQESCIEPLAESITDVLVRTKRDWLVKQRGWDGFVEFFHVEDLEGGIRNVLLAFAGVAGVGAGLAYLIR
Chain of Bcl-xL (Q07817 whole entry, species assumed): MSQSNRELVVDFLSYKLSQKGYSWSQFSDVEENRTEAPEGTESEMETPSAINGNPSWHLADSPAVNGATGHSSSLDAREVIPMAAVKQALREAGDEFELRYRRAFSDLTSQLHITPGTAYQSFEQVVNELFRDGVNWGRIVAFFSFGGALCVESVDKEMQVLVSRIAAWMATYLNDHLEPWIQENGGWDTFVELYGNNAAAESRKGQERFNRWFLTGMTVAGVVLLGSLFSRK
T2 sequence (Q07820 whole entry): as the sequence (Q07820 whole entry, species assumed) above
Chain of Bcl-2 (P10415 whole entry, species assumed): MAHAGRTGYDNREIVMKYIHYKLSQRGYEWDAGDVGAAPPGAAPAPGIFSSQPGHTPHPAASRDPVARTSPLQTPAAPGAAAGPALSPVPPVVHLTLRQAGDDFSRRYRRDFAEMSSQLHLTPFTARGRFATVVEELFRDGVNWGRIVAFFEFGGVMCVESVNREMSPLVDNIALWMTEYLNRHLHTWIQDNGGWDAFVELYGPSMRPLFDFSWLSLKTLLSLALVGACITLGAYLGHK

In turn, `CC1(C)CCC(CN2CCN(c3ccc(C(=O)NS(=O)(=O)c4ccc(NCC5CCOCC5)c([N+](=O)[O-])c4)c(Oc4cnc5[nH]ccc5c4)c3)CC2)=C(c2ccc(Cl)cc2)C1` [ABT-199, venetoclax] gave a pIC50 in [1] (Homo sapiens) of 5.51. The pKi in series [2] (TABLE 6, † values reported in the literature) is less than 6.35; in series [2] (TABLE 8, † reported in the literature) it was less than 6.35. The pEC50 in [3] was 5.31 to 5.43.
As for `CC1(C)CCC(c2ccc(Cl)cc2)=C(CN2CCN(c3ccc(C(=O)NS(=O)(=O)c4ccc(N[C@H](CCN5CCOCC5)CSc5ccccc5)c(S(=O)(=O)C(F)(F)F)c4)cc3)CC2)C1` [ABT-263, navitoclax, reference compound], the Profile result in series [4] and in [6] was “Bcl-xL/Bcl-2 selective” each time. Besides, in series [5], the “disrupting the MCL-1/BAK protein-protein interaction (normalized FRET signal)” value was “did not disrupt”.
As to `CC[C@H](C)[C@H](NC(C)=O)C(=O)N[C@@H](Cc1c[nH]c2ccccc12)C(=O)N[C@H](C(=O)N[C@@H](C)C(=O)N[C@@H](CCC(N)=O)C(=O)N[C@@H](C)C(=O)N[C@@H](CC(C)C)C(=O)N[C@@H](CCCNC(=N)N)C(=O)N[C@]1(C)CCCCCCC=CCCC[C@@](C)(C(=O)N[C@@H](Cc2ccc(O)cc2)C(=O)N[C@@H](Cc2ccc(F)cc2)C(=O)N[C@@H](C)C(N)=O)NC(=O)[C@H](CC(N)=O)NC(=O)[C@H](Cc2ccccc2)NC(=O)[C@H](C)NC(=O)[C@H](CC(=O)O)NC(=O)CNC(=O)[C@H](CCC(C)C)NC1=O)[C@@H](C)CC` [Peptide #16] (Ac-IWIAQALR[R8][hLeu]GDAFN[S5]Y[Phe(4-F)]A-NH2; staple 9-16), the pKi is 7.57 in [7] (TABLE 8, read-out: Mcl-1 Ki) and 7.89 in [8] (TABLE 8, read-out: Bcl-xL Ki). Also, in [4], the Profile entry is reported as “Pan-selective”. In addition, the “% cell viability” value in series [9], in series [10] and in [11] was “decreased the % viability of the cells” in each case. Also, the “Relative caspase-3/7 activation” value in [12], in series [13] and in series [14] was “higher levels of caspase-3/7 activation than the BIM SAHBA1 control” throughout. The figures for the on-mechanism cytotoxic activity result in [15] and in [16] were “exhibited on-mechanism cytotoxic activity” and “did not exhibit on-mechanism cytotoxic activity”, respectively. The “off-target cytotoxicity in the LDH assay” value in [17] is “No off-target cytotoxicity was observed”. In series [1] (Raji cell line), the “potency relative to BIM SAHBA1” value is recorded as “ten times more potent than BIM SAHBA1”. The molecule further had a pIC50 in series [1] of 5.70. In [18], this molecule had a pEC50 of 5.80 to 5.92. The “anti-proliferative effects in combination” value in series [18] (Raji cells, combined with fixed doses of the other agent (peptide #16 0.95-3.8 μM or ABT-199 1.9-3.8 μM)) is “enhanced”. The “Raji cell proliferation (fraction of control)” value in [18] (increasing doses, combination study) is on record as “decreased”.
As to `CC[C@H](C)[C@H](NC(C)=O)C(=O)N[C@@H](Cc1c[nH]c2ccccc12)C(=O)N[C@H](C(=O)N[C@@H](C)C(=O)N[C@@H](CCC(N)=O)C(=O)N[C@@H](C)C(=O)N[C@@H](CC(C)C)C(=O)N[C@@H](CCCNC(=N)N)C(=O)N[C@]1(C)CCCCCCC=CCCC[C@@](C)(C(=O)N[C@@H](Cc2ccc(O)cc2)C(=O)N[C@@H](Cc2ccc(O)cc2)C(=O)N[C@@H](C)C(N)=O)NC(=O)[C@H](CC(N)=O)NC(=O)[C@H](Cc2ccccc2)NC(=O)[C@H](CCC(=O)O)NC(=O)[C@H](CC(=O)O)NC(=O)CNC(=O)[C@H]([C@@H](C)CC)NC1=O)[C@@H](C)CC` [compound 1649] (Ac-IWIAQALR[R8]IGDEFN[S5]YYA-NH2; staple 9-16), the pKi is 8.74 in series [7] (read-out: Ki MCL-1), 8.85 in [8] (read-out: Ki BCL-XL) and 8.49 in series [19]. The molecule also came in with an EC50 in series [20] greater than 40 µM.
